US20250228916A1, “A METHOD OF TREATING OR PREVENTING SEPSIS” (priority 2016, published 2025)

How the values were obtained:
endothelial cells [1] = experiment: Transwell permeability assay, E. coli infected endothelial cells; format: cell-based, human; conditions: preincubating the endothelial cells with cilengitide; FIG. 16
Description: (§1) Endothelial barrier permeability was assessed using a transwell apparatus with the slight modifications. Sheared HAoECs were trypsinized and seeded into hanging inserts, were placed in a 6 well plate. To the lower (abluminal) chamber of the plate 4 ml of cell media was added and 2 ml of media containing 200,000 cells/ml was added to the top (luminal) chamber. The wells plates were incubated at 37° C. in a 5% CO2 and humidified atmosphere overnight to form a confluent monolayer. Media in the abluminal chamber was changed to antibiotic free media while simultaneously the media in the luminal chamber was removed and washed with antibiotic free media. Cells were infected with S. aureus Newman WT and S. aureus ΔClfA in 2 ml of antibiotic free media to infect the cells at a MOI of 400 for 3 hrs at 37° C. FITC dextran (40 kDa) was added to the top chamber for a final concentration of 250 μg/ml in 2 ml. Media samples from the abluminal chamber were taken 24 hrs after infection measured on a plate reader at fluorescence Ex/Em 485/535 nm. The experiment was repeated to test αVβ3 blocking by cilengitide at 0.05 μM for 1 hr between the TNFα exposure and the addition of 4 mg/ml fibrinogen in place of plasma for 1 hr. This experiment was repeated using E. coli and E. coli AompA instead of S. aureus Newman WT or Newman ΔClfA.

endothelial cells [2] = experiment: Apoptosis assay (Annexin V flow cytometry), E. coli infected endothelial cells
Description: (§2) Sheared HAoECs in a 6 well plate were exposed to 1 ng of TNFα per 25,000 endothelial cells and were incubated for 4 hrs at 37° C. The TNFα containing media was removed and 1 ml of 4 mg/ml Fg in media at 37° C. for 1 hr. Media was removed and replaced with 1 ml of antibiotic free media containing S. aureus Newman WT or Newman ΔClfA to a MOI of 400 in a final volume per well of 2 ml. The cells were incubated for 24 hrs at 37° C. Following incubation the media was removed and the wells washed 3 times with warm PBS. Cells were detached by trypsinization and pelleted. The cell pellet was washed in ice cold (4° C.) PBS before being stained with a TACS™ Annexin V Apoptosis Kit. The cells were analysed on a flow cytometer (BD FACSCanto™ II Flow Cytometer). The experiment was repeated to test αVβ3 blocking by cilengitide at 0.05 µM for 1 hr between the TNFα exposure and the addition of 4 mg/ml fibrinogen for 1 hr. This experiment was repeated using E. coli and E. coli AompA instead of S. aureus Newman WT or Newman ΔClfA.

[3] = test system: αVβ3 integrin on endothelial cells; experiment: E. coli binding to endothelial cells, static assay; format: cell-based, human; conditions: cilengitide 0.05 μM; FIG. 14A
Description: (§3) Sheared HAoECs were seeded into wells of a 96 well tissue culture plate at a density of 2.5×10^4 cells per well in a volume of 100 μl. Experiments were carried out either in the presence or absence of TNFα at 10 ng/ml. The HAoECs were incubated at 37° C. 5% CO2 for 4 hours to facilitate attachment and cell-cell contact on the plate. Following the 4 hr incubation the media was removed and 100 μl of human platelet poor plasma (PPP), 4 mg/ml fibrinogen or 1 mg/ml IgG was added to each well and incubated for 1 hr at 37° C. 5% CO2. The wells were washed with PBS and the wells were blocked with 100 μl of 1% […] for 1 hr at 37° C. Finally the wells were washed with 100 μl of TBS and 100 μl of SYBR green II stained bacteria was added per well at a MOI of 400. The cells were incubated for a further 1 hr at 37° C. 5% CO2 and then read on a fluorescent plate reader (1420 Victor V3, Perkin Elmer, Dublin, Ireland) at 485/535 nm. The bacteria were then removed gently by pipette and the plate washed with 100 μl TBS/well. The plate was then read again at 485/535 nm. Adhered bacteria were calculated as a percent remaining from the initial reading multiplied by the number of bacteria added.

purified receptor a Vb3 = purified receptor a Vb3 (Homo sapiens, UniProt P05106+P06756); experiment: L. lactis ClfA binding to purified receptor αVβ3; conditions: pretreating the purified receptor with cilengitide; FIG. 6C
Sequence of purified receptor a Vb3 (P06756 31-889 limits assumed): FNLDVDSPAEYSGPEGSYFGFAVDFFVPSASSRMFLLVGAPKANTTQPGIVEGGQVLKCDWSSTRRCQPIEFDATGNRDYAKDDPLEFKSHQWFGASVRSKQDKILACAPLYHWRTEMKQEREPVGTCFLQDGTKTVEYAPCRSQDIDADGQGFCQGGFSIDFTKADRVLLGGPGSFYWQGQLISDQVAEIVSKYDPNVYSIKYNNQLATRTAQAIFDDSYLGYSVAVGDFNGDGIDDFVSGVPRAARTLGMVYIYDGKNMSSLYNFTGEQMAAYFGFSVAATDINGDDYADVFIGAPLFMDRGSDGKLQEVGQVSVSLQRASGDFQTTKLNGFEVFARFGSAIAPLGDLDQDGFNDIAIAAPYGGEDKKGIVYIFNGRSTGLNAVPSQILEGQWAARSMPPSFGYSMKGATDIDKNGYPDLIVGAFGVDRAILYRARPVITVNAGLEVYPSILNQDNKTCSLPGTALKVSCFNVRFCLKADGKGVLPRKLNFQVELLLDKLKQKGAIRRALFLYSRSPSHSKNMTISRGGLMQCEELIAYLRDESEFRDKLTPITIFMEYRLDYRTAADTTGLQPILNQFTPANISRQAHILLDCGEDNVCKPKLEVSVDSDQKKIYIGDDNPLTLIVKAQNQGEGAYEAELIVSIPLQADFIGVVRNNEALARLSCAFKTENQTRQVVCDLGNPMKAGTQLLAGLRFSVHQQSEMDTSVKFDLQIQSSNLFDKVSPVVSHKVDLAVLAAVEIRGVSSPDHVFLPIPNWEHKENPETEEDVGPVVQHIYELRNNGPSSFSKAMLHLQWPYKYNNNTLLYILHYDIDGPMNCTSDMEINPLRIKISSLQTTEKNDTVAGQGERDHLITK
Sequence of purified receptor a Vb3 (P06756 891-1048 partner limits assumed): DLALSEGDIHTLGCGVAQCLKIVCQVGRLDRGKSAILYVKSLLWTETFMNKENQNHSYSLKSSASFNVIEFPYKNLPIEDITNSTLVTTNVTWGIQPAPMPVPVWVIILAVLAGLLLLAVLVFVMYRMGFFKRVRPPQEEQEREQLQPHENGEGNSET
Sequence of purified receptor a Vb3 (P05106 27-788): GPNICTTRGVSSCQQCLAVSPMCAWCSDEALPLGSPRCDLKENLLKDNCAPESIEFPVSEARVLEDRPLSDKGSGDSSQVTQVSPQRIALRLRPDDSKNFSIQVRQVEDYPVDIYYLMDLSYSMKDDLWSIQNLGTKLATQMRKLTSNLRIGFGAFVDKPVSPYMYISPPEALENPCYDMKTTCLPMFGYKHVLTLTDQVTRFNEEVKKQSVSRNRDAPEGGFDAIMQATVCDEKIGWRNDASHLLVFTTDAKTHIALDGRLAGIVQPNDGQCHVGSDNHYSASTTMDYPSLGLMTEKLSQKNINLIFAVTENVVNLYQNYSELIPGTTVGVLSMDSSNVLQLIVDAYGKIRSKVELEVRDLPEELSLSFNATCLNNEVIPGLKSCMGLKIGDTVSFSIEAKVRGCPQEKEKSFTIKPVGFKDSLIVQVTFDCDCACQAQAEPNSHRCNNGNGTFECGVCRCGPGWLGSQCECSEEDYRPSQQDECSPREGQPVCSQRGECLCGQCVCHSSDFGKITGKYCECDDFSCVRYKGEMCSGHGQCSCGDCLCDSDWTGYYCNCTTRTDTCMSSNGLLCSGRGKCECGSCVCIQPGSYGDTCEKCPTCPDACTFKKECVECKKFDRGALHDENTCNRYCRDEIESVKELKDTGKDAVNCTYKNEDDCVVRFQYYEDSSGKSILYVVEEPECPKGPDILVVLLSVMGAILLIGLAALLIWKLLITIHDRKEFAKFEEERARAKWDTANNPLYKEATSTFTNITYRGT

endothelial cells [4] = experiment: VE-cadherin immunostaining of tight junction formation after E. coli infection; format: cell-based, human; conditions: pre-treating the endothelial cells with cilengitide; FIG. 17E
[5] = test system: αVβ3 on human endothelial cells; experiment: Binding assay: L. lactis expressing ClfA binding to sheared human endothelial cells; format: cell-based; conditions: pretreatment of the human endothelial cells with cilengitide; FIG. 6B
Description: as §3

human endothelial cells [6] = experiment: Apoptosis assay (Annexin V), S. aureus infected human endothelial cells; format: cell-based; conditions: cilengitide at 0.05 µM for 1 hr; FIG. 9B
Description: as §2

[7] = test system: vascular endothelial αVβ3 integrin receptor; experiment: Adhesion of gram positive and gram negative bacteria to vascular endothelial cells; format: cell-based, human; conditions: blocking the αVβ3 receptor
Description: as §3

human endothelial cells [8] = experiment: Proliferation assay, S. aureus infected human endothelial cells; format: cell-based; conditions: 0.05 μM cilengitide, 24 hrs; FIG. 8H
Description: Sheared HAoECs were seeded into a six well plate at 150,000 cells per well in 1.6 ml media containing 10 ng/ml of TNFα. The cells were incubated for 4 hrs at 37° C. in a 5% CO2. […] The media was removed and the well washed with antibiotic free media. To each well 1.6 ml of antibiotic free media was added containing S. aureus Newman or S. aureus ΔClfA for a MOI of 400. The cells were incubated at 37° C. in for 24 hrs. Following incubation the media was removed from the cells and they were washed 4 times with warm PBS. The cells were detached from the 6 well plate by trypsinization counted on a haemocytometer.

human endothelial cells [9] = experiment: Transwell permeability assay, S. aureus infected human endothelial cells; format: cell-based; conditions: cilengitide at 0.05 μM for 1 hr; FIG. 10
Description: as §1

[10] = test system: S. aureus adhesion to murine endothelial cells; experiment: In vivo venous mesenteric perfusion model of bacterial adhesion; conditions: cilengitide administered intravenously; FIG. 7C, 7E
[11] = test system: αVβ3 integrin on sheared endothelial cells; experiment: E. coli binding to sheared endothelial cells under perfusion; format: cell-based, human; conditions: cilengitide 0.05 μM; E. coli perfused at 10 dyns for 5 minutes; FIG. 14B
human endothelial cells [12] = experiment: MTT cytotoxicity assay; format: cell-based; conditions: 0.05 μM cilengitide, FIG. 12
Description: Cell metabolic activity was measured using a MTT ((3-(4,5-dimethylthiazol-2-yl)-2,5-diphenyltetrazolium bromide) assay kit. Sheared HAoECs were seeded into a clear 96 well microtitre plate at a density of 2.5×10^4 cells/well in 100 μl in media containing 10 ng/ml TNFα. The cells were incubated for 4 hrs at 37° C. Media was removed from the wells after 4 hrs and replaced with 100 μl of fresh cell media, cell media containing a vehicle or cell media containing 0.05 μM cilengitide. The plate was incubated for a further one hour before the media was changed for 100 μl of fresh cell media with 10 μl of 12 mM MTT stock and the plate 10 incubated at 37° C. for 4 hrs. All but 25 μl of liquid was removed from each well and 10 μl of DMSO was added per well. The plate was incubated for 10 minutes at 37° C. before being read on a plate reader for absorbance at 570 nm.

[13] = biological target: vascular endothelial αVβ3 integrin on sheared human aortic endothelial cells (human)

| Molecule | E. coli induced permeability of endothelial cells (endothelial cells [1]) | viability of endothelial cells (endothelial cells [2]; cilengitide alone, no infection) | E. coli induced apoptosis of endothelial cells (endothelial cells [2]; preincubation of endothelial cells with cilengitide, Annexin V, FIG. 17F) | E. coli binding to endothelial cells, static assay [3] | L. lactis ClfA binding to purified receptor αVβ3 (purified receptor a Vb3) | VE-cadherin tight junction formation following E. coli infection (endothelial cells [4]) | binding of L. lactis expressing ClfA to human endothelial cells [5] | S. aureus induced apoptosis of human endothelial cells (human endothelial cells [6]) | adhesion of both gram positive and gram negative bacteria to vascular endothelial cells [7] | human endothelial cell proliferation after S. aureus infection (human endothelial cells [8]) | permeability of the human endothelial barrier following S. aureus infection (human endothelial cells [9]) | S. aureus binding to murine endothelial cells [10] | E. coli binding to sheared endothelial cells, perfused [11] | toxicity in human endothelial cells (human endothelial cells [12]) | endothelial cell permeability (% increase in permeability) [13] |
| --- | --- | --- | --- | --- | --- | --- | --- | --- | --- | --- | --- | --- | --- | --- | --- |
| CC(C)[C@H]1C(=O)N[C@@H](CCCN=C(N)N)C(=O)NCC(=O)N[C@@H](CC(=O)O)C(=O)N[C@H](Cc2ccccc2)C(=O)N1C [cilengitide, cyclo(-RGDf(NMe)V-)] | significantly reduces permeability | failed to affect | significant reduction | significantly inhibited | significantly inhibited | recovery of tight junction formation | significantly reduced | significantly reduced | dose-dependent reduction in adhesion | significantly recovered | significantly reduced | failed to significantly bind | significantly inhibited | does not cause toxicity | – |
| Escherichia coli outer membrane protein A | – | – | – | – | – | – | – | – | – | – | – | – | – | – | 30 |
